Data from publication PMC8250858, “A Systematic Study of the Stability, Safety, and Efficacy of the de novo Designed Antimicrobial Peptide PepD2 and Its Modified Derivatives Against Acinetobacter baumannii” (Frontiers in Microbiology, 2021).
Like-named read-outs stand apart in the source and are kept apart here.

Legend:
HEK293 cells = type: cell-based, human
Experimental: Cell viability assays were performed by using the CellTiter 96® AQueous Non-Radioactive Cell Proliferation Assay (Promega, United States), in which 3-(4,5-dimethylthiazol-2-yl)-5-(3-carboxymethoxyphenyl)-2-(4-sulfophenyl)-2H-tetrazolium salt (MTS) can be reduced to purple-colored formazan by intact cells. […] The test peptide was dissolved in water and filtered through a 0.2-μm filter. The peptide concentration was quantitated by the UV280 to make a 5,120 μg/mL stock solution and then serially diluted in serum-free DMEM. On the second day, the medium was replaced with 100 μL of serum-free DMEM containing different peptide concentrations and incubated for 1 or 24 h. Serum-free DMEM without peptide was used as a negative control and medium containing 1% Triton X-100 was used as a positive control. One milligram of MTS powder was dissolved in 0.5 mL of Dulbecco’s phosphate-buffered saline (DPBS). The MTS solution was mixed with one-twentieth of a phenazine methosulfate (PMS) solution ([…]). To each well, 20 μL of the MTS/PMS solution was added. After 3 h, the absorbance was measured with an Infinite M1000 pro (Tecan Austria GmbH, Austria) at a wavelength of 490 nm. Cell viability was calculated using the following equation. Cellviability=[(A-Ap)/(An-Ap)]×100% A is the UV490 of the peptide-treated sample An is the UV490 of the sample without peptide (negative control) Ap is the UV490 of the Triton-treated sample (positive control)

A. baumannii ATCC 17978 = type: cell-based, Acinetobacter baumannii; details: spotted on MHA plate, 24 h
Experimental: Following CLSI guideline M07-A11, single bacterial colonies of A. baumannii ATCC 17978 grown on Müller–Hinton agar (MHA) plates were picked and inoculated in 4 mL of Müller–Hinton broth (MHB) at 37°C and shaken at 180 rpm for 4∼6 h. The bacterial broth was diluted in the same medium to give a cell density of 1∼2 × 10^8 CFU/mL (OD600 = 0.38∼0.4 for A. baumannii) (Supplementary Figure 1; [Dillon et al., 2020]). Then, the broth was diluted 20-fold. Peptides were dissolved in water and filtered through a 0.2-μm filter to make a stock solution. The peptide concentration was quantified by the UV280. Then, the peptide solution was serially diluted in MHB to final peptide concentrations of 1, 2, 4, 8, 16, and 32 μg/mL. One hundred microliters of serially diluted peptide and 10 μL of bacterial culture were mixed in a 96-well polystyrene plate. Each well contained approximately 5 × 10^5 CFU/mL. The positive control was a mixture of 100 μL of MHB and 10 μL of the bacterial culture. The negative control was 110 μL of MHB. The plates were incubated at 37°C without shaking. […] The bacterium-peptide mixtures (the mixture without visible growth and the mixture containing a two-fold […] peptide concentration than the mixture without growth), positive control, and negative control (3 μL each) were spotted on an MHA plate and incubated at 37°C for 24 h. The MBC was determined as the lowest peptide concentration at which no colonies formed.
The MIC and MBC of our designed peptides against A. baumannii were obtained by using the broth microdilution method in the CLSI protocol. The bacterial cell number was carefully counted, and a final cell density of 5 × 10^5 CFU/mL in each well was used in the MIC test (Supplementary Figure 1). The minimal peptide concentration at which no bacterial growth was observed was taken as the MIC value. The culture after peptide treatment was spotted on an MHA plate, and the peptide concentration that could kill all the bacteria was defined as the MBC. The MIC/MBC and hemolytic activity of these peptides are shown and compared in Figure 1.

Substance: Ac-WKKIKKIIKKIKKI-NH2 [pepI2]
- HEK293 IC50 (HEK293 cells; 1 h): 68.5 µg/mL
- HEK293 IC50 (HEK293 cells; 24 h): 66.8 µg/mL
- MBC A. baumannii 17978 (A. baumannii ATCC 17978): 4 µg/mL
